Measurements taken from paper PMC9851200, “Multiparameter phenotypic screening for endogenous TFEB and TFE3 translocation identifies novel chemical series modulating lysosome function” (Autophagy, 2022).

What was measured:
Format in all cases: binding
[1] = molecular target: kinases (KINOMEscan panel) (Homo sapiens, UniProt Q8NI60); conditions: COQ8A; NEW KINOMEscan
[2] = molecular target: kinases (KINOMEscan panel) (Homo sapiens, UniProt Q9H1R3); conditions: MYLK2; NEW KINOMEscan
[3] = molecular target: kinases (KINOMEscan panel) (Homo sapiens, UniProt P21127); conditions: CDK11B; NEW KINOMEscan
[4] = molecular target: kinases (KINOMEscan panel) (Homo sapiens, UniProt Q9H4A3); conditions: NEW KINOMEscan
[5] = molecular target: T1, kinases (KINOMEscan panel) (Homo sapiens, UniProt Q6ZWH5); conditions: NEW KINOMEscan
T1 sequence (Q6ZWH5 1-1172): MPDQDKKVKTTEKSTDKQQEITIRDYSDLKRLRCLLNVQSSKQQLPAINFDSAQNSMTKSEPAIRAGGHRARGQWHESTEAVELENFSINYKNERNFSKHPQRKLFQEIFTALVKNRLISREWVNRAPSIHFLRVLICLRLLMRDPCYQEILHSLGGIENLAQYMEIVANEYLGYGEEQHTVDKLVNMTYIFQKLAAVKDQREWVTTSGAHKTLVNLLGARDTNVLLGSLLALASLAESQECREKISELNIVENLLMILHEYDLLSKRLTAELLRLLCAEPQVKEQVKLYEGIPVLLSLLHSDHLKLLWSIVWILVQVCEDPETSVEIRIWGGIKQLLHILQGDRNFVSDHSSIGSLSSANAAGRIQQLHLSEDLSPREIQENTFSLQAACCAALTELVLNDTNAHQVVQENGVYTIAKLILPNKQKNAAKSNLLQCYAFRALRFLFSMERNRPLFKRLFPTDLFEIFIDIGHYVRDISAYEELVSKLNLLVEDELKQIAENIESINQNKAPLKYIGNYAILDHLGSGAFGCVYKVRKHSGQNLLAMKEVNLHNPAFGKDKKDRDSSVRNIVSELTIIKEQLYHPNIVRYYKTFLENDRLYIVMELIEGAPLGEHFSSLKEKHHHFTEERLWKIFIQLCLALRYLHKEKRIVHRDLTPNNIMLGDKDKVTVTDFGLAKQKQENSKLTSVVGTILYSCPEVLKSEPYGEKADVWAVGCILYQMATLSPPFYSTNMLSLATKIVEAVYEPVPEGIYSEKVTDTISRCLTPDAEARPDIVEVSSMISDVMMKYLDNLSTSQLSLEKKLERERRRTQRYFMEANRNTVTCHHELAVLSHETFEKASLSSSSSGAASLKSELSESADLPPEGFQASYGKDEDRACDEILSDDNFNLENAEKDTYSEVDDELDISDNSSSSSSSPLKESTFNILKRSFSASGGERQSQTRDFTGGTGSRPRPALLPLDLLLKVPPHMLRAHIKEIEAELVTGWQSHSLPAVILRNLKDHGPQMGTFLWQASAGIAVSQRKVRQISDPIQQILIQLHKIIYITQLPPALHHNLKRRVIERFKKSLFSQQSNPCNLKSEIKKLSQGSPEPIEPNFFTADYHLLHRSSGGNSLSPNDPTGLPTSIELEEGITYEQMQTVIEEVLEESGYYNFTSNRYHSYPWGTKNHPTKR

[6] = molecular target: T2, kinases (KINOMEscan panel) (Homo sapiens, UniProt Q8IYT8); conditions: NEW KINOMEscan
T2 sequence (Q8IYT8 1-1036): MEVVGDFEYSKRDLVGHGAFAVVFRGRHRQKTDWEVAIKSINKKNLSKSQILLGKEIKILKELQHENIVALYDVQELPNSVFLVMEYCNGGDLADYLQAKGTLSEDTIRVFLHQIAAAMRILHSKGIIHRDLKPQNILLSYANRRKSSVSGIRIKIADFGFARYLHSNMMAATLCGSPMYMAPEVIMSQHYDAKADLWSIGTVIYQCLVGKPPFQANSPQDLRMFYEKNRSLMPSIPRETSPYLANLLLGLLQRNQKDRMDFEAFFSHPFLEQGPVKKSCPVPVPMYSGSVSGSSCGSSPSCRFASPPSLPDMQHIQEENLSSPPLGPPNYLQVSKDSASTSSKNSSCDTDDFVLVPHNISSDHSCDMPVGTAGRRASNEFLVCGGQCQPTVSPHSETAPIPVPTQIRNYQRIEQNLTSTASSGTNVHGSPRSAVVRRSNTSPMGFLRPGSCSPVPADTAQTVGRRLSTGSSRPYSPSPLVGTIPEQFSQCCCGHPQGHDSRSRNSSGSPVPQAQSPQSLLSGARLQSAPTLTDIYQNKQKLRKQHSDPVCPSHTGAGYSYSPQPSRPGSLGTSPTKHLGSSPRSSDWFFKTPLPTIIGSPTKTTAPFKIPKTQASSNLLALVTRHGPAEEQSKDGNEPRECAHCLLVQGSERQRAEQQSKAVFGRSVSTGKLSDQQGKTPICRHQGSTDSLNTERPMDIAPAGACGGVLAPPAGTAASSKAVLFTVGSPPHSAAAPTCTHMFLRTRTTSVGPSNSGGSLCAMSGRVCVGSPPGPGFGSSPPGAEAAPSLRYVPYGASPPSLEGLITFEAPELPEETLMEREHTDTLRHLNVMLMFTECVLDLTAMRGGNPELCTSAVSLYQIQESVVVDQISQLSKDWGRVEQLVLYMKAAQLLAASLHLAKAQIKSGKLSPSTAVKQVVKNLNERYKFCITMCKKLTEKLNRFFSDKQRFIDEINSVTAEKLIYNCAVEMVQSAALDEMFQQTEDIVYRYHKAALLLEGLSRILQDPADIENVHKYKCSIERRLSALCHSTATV

[7] = molecular target: kinases (KINOMEscan panel) (Homo sapiens, UniProt Q99558); conditions: kinase MAP3K14; NEW KINOMEscan

kinases (KINOMEscan panel) (Homo sapiens, UniProt P21127), sequence (P21127 whole entry): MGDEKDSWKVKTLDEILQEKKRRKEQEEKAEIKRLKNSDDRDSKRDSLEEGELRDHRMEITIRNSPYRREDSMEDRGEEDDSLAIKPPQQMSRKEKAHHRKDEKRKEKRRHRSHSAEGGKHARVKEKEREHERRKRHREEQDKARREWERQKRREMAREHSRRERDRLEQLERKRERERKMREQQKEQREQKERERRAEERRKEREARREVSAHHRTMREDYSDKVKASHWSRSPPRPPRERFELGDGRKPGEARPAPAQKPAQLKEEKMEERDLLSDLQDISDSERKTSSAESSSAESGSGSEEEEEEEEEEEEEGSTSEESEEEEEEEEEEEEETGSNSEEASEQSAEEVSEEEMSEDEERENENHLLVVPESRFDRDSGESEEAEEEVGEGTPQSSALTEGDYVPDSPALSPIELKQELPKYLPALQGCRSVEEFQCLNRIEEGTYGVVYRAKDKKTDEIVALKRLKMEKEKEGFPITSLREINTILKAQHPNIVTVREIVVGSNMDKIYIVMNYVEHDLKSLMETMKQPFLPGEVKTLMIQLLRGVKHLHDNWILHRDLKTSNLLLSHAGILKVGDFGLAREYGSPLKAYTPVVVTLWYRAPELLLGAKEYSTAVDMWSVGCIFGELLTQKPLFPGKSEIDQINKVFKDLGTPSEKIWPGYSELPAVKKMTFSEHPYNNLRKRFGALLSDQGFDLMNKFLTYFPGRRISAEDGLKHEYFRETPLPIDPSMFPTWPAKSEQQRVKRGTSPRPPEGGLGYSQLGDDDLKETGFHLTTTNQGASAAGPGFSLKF
kinases (KINOMEscan panel) (Homo sapiens, UniProt Q9H1R3), sequence (Q9H1R3 whole entry): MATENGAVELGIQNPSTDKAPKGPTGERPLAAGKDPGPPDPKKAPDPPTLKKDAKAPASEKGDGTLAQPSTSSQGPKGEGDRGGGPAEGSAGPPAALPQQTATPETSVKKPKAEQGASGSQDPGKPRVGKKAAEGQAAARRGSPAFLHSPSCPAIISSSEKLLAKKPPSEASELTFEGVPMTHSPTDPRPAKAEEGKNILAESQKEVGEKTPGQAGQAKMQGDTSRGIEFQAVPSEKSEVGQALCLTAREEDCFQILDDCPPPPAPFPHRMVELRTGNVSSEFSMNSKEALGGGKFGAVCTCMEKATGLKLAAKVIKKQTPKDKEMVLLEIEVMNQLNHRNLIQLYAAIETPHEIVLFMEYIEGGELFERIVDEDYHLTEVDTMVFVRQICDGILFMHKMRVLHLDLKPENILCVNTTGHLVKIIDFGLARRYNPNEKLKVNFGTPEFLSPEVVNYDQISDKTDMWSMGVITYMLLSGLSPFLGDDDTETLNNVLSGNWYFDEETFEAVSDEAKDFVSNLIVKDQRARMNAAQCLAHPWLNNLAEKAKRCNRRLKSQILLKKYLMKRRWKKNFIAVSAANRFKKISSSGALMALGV
kinases (KINOMEscan panel) (Homo sapiens, UniProt Q9H4A3), sequence (Q9H4A3 whole entry): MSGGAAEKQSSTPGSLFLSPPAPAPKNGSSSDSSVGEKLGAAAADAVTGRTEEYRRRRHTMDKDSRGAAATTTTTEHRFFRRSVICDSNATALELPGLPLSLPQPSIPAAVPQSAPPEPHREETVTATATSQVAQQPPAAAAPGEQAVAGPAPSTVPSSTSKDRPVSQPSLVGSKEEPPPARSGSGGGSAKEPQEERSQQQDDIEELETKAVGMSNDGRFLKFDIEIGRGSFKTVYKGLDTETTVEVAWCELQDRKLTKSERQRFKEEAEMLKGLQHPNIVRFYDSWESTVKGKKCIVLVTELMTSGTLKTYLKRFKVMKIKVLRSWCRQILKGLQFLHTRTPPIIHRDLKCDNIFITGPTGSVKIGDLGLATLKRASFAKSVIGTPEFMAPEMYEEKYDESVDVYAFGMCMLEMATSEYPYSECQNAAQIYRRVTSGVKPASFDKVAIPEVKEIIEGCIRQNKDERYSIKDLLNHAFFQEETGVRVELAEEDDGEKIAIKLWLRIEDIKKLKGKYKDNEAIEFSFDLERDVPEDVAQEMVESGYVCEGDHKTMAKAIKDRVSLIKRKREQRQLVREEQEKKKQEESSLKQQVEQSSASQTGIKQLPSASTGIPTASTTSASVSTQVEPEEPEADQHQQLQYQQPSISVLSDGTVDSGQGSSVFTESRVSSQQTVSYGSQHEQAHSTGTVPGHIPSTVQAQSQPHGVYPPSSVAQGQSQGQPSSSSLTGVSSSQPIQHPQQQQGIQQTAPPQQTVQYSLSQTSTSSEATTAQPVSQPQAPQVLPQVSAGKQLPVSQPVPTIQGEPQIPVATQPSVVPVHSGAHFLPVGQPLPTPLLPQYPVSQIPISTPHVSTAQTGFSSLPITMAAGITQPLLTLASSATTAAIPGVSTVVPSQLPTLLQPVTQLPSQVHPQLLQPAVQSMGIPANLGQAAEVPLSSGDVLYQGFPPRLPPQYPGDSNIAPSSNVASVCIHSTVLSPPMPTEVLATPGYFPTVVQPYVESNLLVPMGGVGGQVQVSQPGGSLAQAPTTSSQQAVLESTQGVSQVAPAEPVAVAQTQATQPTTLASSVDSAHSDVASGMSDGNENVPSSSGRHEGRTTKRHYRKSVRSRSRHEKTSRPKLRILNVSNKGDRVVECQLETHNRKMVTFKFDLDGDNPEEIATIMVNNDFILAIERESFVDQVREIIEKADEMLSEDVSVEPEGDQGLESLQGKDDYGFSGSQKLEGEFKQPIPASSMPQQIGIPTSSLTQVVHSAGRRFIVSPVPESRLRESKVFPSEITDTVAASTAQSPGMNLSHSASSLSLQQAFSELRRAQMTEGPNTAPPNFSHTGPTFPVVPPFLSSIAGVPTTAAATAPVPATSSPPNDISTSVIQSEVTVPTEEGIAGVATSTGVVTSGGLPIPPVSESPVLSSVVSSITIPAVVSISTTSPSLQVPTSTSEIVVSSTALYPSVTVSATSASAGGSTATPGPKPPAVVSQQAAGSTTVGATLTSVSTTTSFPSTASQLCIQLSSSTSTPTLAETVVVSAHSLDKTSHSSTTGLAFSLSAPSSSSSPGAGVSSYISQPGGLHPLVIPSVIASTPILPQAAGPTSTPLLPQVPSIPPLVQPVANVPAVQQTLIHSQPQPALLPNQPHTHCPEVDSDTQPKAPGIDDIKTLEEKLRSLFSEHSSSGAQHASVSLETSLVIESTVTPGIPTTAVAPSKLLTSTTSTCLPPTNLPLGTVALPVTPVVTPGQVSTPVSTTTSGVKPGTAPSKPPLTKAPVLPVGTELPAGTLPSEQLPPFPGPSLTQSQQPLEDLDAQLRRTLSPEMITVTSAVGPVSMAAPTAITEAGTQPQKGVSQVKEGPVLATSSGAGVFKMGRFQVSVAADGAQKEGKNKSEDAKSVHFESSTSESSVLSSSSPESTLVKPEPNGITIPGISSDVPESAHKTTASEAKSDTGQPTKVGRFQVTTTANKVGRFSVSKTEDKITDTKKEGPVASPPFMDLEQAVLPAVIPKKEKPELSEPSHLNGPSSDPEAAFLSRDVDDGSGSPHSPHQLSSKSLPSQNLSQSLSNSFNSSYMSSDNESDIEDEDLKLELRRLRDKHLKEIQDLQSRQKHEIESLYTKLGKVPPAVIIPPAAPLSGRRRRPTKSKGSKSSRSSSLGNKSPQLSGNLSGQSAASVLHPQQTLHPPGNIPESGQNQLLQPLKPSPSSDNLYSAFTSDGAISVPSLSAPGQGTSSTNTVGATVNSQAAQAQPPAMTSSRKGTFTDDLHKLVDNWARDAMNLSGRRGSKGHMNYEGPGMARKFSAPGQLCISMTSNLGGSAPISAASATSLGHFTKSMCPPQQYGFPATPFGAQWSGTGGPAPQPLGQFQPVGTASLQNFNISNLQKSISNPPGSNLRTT
kinases (KINOMEscan panel) (Homo sapiens, UniProt Q8NI60), sequence (Q8NI60 163-647): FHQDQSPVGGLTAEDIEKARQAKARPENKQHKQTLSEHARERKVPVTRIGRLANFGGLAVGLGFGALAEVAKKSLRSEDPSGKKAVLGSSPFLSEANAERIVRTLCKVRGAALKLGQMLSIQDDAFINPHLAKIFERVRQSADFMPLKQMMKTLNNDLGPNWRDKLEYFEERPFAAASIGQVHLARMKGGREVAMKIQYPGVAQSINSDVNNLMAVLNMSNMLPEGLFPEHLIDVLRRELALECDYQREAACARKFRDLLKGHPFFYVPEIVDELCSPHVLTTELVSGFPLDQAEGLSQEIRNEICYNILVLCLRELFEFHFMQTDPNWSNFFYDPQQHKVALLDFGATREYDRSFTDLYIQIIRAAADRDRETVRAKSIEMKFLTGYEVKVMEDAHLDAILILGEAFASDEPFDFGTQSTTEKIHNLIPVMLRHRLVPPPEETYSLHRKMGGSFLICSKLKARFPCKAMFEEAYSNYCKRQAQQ

| Structure (SMILES) | KINOMEscan COQ8A [1] | KINOMEscan MYLK2 [2] | KINOMEscan CDK11B [3] | KINOMEscan WNK1 [4] | KINOMEscan NEK10 [5] | KINOMEscan ULK2 [6] | KINOMEscan MAP3K14 [7] |
| --- | --- | --- | --- | --- | --- | --- | --- |
| Cc1cccc(-c2nc(Nc3ccc4nn(C)cc4c3)c3ccccc3n2)n1 [NK167] | 5 | 0 | 10 | 0 | 11 | 17 | 0 |
| Cc1cccc(-c2nc(N(C)c3ccc4ncsc4c3)c3ccccc3n2)n1 [NK-161] | 1 | 9 | 1 | 9 | 17 | 23 | 2 |
